Assay results reported in patent US8791159B2, “Compound capable of binding S1P receptor and pharmaceutical use thereof” (Ono Pharmaceutical Co., Ltd., priority 2003, dated 2014).

How the values were obtained:
[1] = test system: S1P receptor; details: cited from earlier work
[2] = cited from earlier work
[3] = after administration; cited from earlier work
[4] = biological target: Human EDG-1 (Homo sapiens, UniProt P21453); test: Agonistic activity against EDG by monitoring intracellular calcium ion concentration [Ca2+]i; format: cell-based; details: human EDG-1 overexpressing CHO cells, increase ratio of [Ca2+]i
Chain of Human EDG-1 (P21453 whole entry): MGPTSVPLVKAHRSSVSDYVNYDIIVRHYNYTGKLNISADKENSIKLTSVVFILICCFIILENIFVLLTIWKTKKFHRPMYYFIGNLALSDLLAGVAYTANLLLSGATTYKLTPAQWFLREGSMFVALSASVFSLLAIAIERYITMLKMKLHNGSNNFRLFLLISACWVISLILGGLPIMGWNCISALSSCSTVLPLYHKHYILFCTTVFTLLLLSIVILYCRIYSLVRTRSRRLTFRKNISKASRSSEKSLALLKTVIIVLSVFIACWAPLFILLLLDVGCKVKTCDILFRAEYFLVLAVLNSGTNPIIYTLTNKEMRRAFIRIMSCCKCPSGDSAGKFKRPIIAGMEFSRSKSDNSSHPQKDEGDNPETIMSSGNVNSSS
Procedure: Human EDG-1, EDG-3, EDG-5 or EDG-8 gene overexpressing Chinese Hamster Ovary (CHO) cells were cultured in Ham's F12 medium (manufactured by GIBCO BRL) containing 10% FBS (fetal bovine serum), penicillin/streptomycin and blasticidin (5 μg/ml). The cultured cells were incubated in a 5 μM Fura2-AM solution (Ham's F12 medium containing 10% of FBS, 20 mM HEPES buffer (pH7.4) and 2.5 mM probenecid) at 37° C. for 60 minutes. After washing once with Hanks solution containing […] buffer (pH7.4) and 2.5 mM probenecid, the plate was soaked in the same solution until assay. Then, the plate was set on a fluorescent drug screening system (FDSS 6000; Hamamatsu Photonics) and the intracellular calcium ion concentration was measured without stimulation for 30 seconds. A test compound (final concentration: 1 nM to 10 μM, dimethylsulfoxide (DMSO) solution) was added and S1P (final concentration: 100 nM) was added 5 minutes thereafter. Then, the increase in the intracellular calcium ion concentration was measured before and after the addition of S1P at intervals of 3 seconds (excitation wavelength: 340 nm and 380 nm, fluorescence wavelength: 500 nm). […]

[5] = test system: lymphocyte in blood; test: Counting the number of lymphocyte in blood (1); format: in vivo, male Sprague-Dawley rats; details: oral, 10, 30 and 100 mg/kg, 4 hours after the administration, rat
Procedure: Test compounds were orally administered to male Sprague-Dawley rats (Charles Riber Laboratories, Japan, Ltd., 6-week-old at using). Four to 72 hours after the administration, the blood was collected from the aorta abdominalis under ether anesthesia. Using a portion of the thus collected blood, the number of blood cells were counted and the number of lymphocyte, neutrophil and platelet were counted. Each group had 4 or 5 animals.

[6] = biological target: T1, EDG-6 (Homo sapiens, UniProt O95977); test: Inhibitory activity on binding of [3H]-S1P to EDG-6 (EDG-6-overexpressing cells); details: competitive binding test, 5 nM D-erythro-sphingosine-3-[3H]-1-phosphate, 60 minutes on ice
T1 construct: expressed in transfected cells; host or cells: EDG-6-overexpressing cells
T1 sequence (O95977 1-384): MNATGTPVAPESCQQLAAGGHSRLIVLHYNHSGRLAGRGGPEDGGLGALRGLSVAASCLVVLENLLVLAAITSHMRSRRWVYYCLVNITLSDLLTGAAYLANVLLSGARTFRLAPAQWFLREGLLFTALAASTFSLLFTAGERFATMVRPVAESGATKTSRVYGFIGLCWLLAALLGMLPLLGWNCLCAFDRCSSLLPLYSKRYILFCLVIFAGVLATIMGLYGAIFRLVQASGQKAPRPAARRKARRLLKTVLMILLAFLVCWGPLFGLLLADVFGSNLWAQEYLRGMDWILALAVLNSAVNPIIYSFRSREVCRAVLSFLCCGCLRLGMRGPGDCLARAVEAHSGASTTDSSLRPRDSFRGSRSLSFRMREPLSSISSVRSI
Procedure: Firstly, EDG-6-overexpressing cells were seeded at a density of 2×10^5 cells/well into a 12-well plate. After 12 hours, the cells were washed with 0.5 mL of an assay buffer twice. In a saturation binding test for determining the KD value and the Bmax value, the cells were incubated in 0.4 mL of an assay buffer containing D-erythro-sphingosine-3-[^3H]-1-phosphate at various concentrations and 2 μL of 0.01 N NaOH for 60 minutes on ice. Then, the wells were washed with 0.8 mL of the assay buffer twice and the whole cells were disrupted by adding 0.1 mL of 0.5% TCA (trichloroacetic acid), 0.4 mL of a lysis buffer (2% Na2CO3, 4% NaOH, 0.1% SDS) and 0.1 mL of 1 N hydrochloric acid. Then, 0.5 mL of the lysed solution was collected in a glass vial (Packard) with a pipette. After adding 7 mL of ACSII (Amersham), the mixture was thoroughly stirred and the radioactivity was measured with a liquid scintillation counter (TRI-CARB 2900TR Packard), thereby determining the KD value. The value of the nonspecific binding was determined by adding unlabeled S1P at a final concentration of 25 μM as a substitute for 0.01 N NaOH. […] The subsequent procedures following washing were carried out as in the saturation binding test and the radioactivity was measured as described above.

CCCCCCCCc1ccc(CCC(N)(CO)COP(=O)(O)O)cc1 (stereo not shown) [phosphorylated FTY720]
binding to S1P receptor subtypes [1]: binds to multiple subtypes of the S1P receptors, i.e., EDG-1, EDG-3, EDG-6 and EDG-8

CCCCCCCCc1ccc(CCC(N)(CO)CO)cc1.Cl [FTY720, 2-amino-2-[2-(4-octylphenyl)ethyl]-1,3-propanediol hydrochloride]
incidence rate of acute rejection ([2]; human kidney transplantation): significantly lowering the incidence rate of acute rejection | lymphocyte count in the peripheral blood ([2]; human, in vivo): reducing the lymphocyte count in the peripheral blood | side effect (bradycardia) [3]: causing bradycardia after administration

O=C(O)CCNCCCc1ccc(OCCCCCc2ccccc2)cc1 [3-[3-(4-(5-phenylpentyloxy)phenyl)propylamino]propanoic acid]
EC50 [4]: 255 nM | number of lymphocyte in blood [5]: concentration-dependently lowered the number of lymphocyte in blood | Ki [6]: 352 nM

CC1=C(CN2CC(C(=O)O)C2)CCc2cc(OCC(C)(C)Cc3ccccc3)ccc21.Cl
melting point: 124 to 127 °C

CC1=C(CNCCC(=O)O)CCc2cc(OCCCCc3ccccc3)ccc21.Cl
melting point: 162.5 to 163.3 °C

CC1=C(CN2CC(C(=O)O)C2)CCc2cc(OCCC(c3ccccc3)c3ccccc3)ccc21.Cl
melting point: 77 to 83 °C
